Paper PMC10818821, “Towards a New Generation of Hormone Therapies: Design, Synthesis and Biological Evaluation of Novel 1,2,3-Triazoles as Estrogen-Positive Breast Cancer Therapeutics and Non-Steroidal Aromatase Inhibitors” (Pharmaceuticals, 2024)

Target: T1, aromatase (CYP19) (Homo sapiens, UniProt P11511)
T1 construct: gene CYP19A1
T1 sequence (P11511 1-503): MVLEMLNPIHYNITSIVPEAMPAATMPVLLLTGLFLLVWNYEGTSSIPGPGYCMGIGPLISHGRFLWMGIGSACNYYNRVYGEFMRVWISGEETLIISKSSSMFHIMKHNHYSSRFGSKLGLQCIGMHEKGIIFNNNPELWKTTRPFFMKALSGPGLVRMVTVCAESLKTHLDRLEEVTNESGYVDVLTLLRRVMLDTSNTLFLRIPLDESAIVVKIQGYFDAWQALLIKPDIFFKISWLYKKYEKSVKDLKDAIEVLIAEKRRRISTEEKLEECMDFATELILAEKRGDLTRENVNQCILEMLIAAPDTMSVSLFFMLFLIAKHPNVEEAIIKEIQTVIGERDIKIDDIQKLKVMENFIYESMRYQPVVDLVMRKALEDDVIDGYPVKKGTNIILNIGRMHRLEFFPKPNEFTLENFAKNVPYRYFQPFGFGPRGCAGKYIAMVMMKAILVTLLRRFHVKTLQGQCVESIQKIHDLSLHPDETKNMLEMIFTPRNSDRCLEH
Test: fluorogenic aromatase activity assay (Abcam kit), dose-response […]
Assay type: biochemical

IC50 | Compound
3.62 µM | COc1ccc(-n2nnc(C(C)=NN=c3sc(C(C)=O)nn3-c3ccccc3)c2C)cc1 [compound 4, 1-(5-((1-(1-(4-Methoxyphenyl)-5-methyl-1H-1,2,3-triazol-4-yl)ethylidene)hydrazono)-4-phenyl-4,5-dihydro-1,3,4-thiadiazol-2-yl)ethan-1-one]
1.99 µM | COc1ccc(-n2nnc(C(C)=NN=c3sc(C(C)=O)nn3-c3ccc(C)cc3)c2C)cc1 [compound 5, 1-(5-((1-(1-(4-Methoxyphenyl)-5-methyl-1H-1,2,3-triazol-4-yl)ethylidene)hydrazono)-4-(p-tolyl)-4,5-dihydro-1,3,4-thiadiazol-2-yl)ethan-1-one]
3.57 µM | CCOC(=O)c1nn(-c2ccccc2)c(=NN=C(C)c2nnn(-c3ccc(OC)cc3)c2C)s1 [compound 6, Ethyl 5-((1-(1-(4-Methoxyphenyl)-5-methyl-1H-1,2,3-triazol-4-yl)ethylidene)hydrazono)-4-phenyl-4,5-dihydro-1,3,4-thiadiazole-2-carboxylate]
2.99 µM | CCOC(=O)c1nn(-c2ccc(C)cc2)c(=NN=C(C)c2nnn(-c3ccc(OC)cc3)c2C)s1 [compound 7, Ethyl 5-((1-(1-(4-Methoxyphenyl)-5-methyl-1H-1,2,3-triazol-4-yl)ethylidene) hydrazono)-4-(p-tolyl)-4,5-dihydro-1,3,4-thiadiazole-2-carboxylate]
